Laboratory results published in patent US11466025B2, “Thienopyridine derivatives containing unsaturated aliphatic olefinic bond, preparation method and use thereof” (Tianjin Institute of Pharmaceutical Research Co., Ltd., priority 2017, dated 2022).
Read-outs that look alike come from different tables or passages of the source.

Legend:
[1] = 1 μM
Procedure: Plasma samples (double sample) containing 1 μM of the compounds of the present invention, clopidogrel hydrogen sulfate (LBGL), 2-oxo product (2-Oxo) were prepared from human blank plasma, and incubated at 37° C. 50 μL of the above incubated plasma samples were taken at different time points, and 100 μL of precipitant (acetonitrile:methanol=7:3) and 50 μL of internal standard were added. The mixture was vortexed for 1 min and centrifuged for 10 min. 100 μL of the supernatant was taken into an inner inserted tube, centrifuged for 5 min, and injected for LC-MS/MS analysis.
Preparation of blank control sample (PPT-0): 100 μL of frozen human blank plasma was taken, to which 195 μL of acetonitrile and 100 μL of internal standard were added, followed by 5 μL of the compound of the present invention, clopidogrel or 2-oxo product (20 μM). The mixture was vortexed for 1 min and centrifuged for 10 min. 100 μL of the supernatant was taken into an inner inserted tube, centrifuged for 5 min, and injected for LC-MS/MS analysis.

[2] = test system: arteriovenous bypass thrombosis in rats; assay: Test of effect of compounds on arteriovenous bypass thrombosis in rats; type: in vivo, SD rats; parameters: Dry weight of thrombus (%): unit not given here; details: rats; for Inhibition rate (%): dry weight of thrombus; for Dry weight of thrombus (%): loop opened 2.5 h after administration, 15 min
Procedure: Test of Effect of Compounds on Arteriovenous Bypass Thrombosis in Rats
Male SD rats were randomly divided into solvent control group, positive drug control group and test compound group. The solvent control group was administered a corresponding volume of the solvent. […] Rats were anesthetized with 4% chloral hydrate (0.32 g/kg), and fixed on the operating table at the supine position. The right common carotid artery and the left external jugular vein were separated, and was each inserted with a Teflon tube filled with normal saline solution containing heparin (50 U/mL), which were connected through another Teflon tube. A 6 cm long cotton thread was placed at the joints of the two tubes. After 2.5 h of administration, the arteriovenous loop was opened in each group and circulated for 15 min. The blood flow was interrupted, and the cotton thread wrapped with the thrombus was quickly removed and weighed. The weight of the cotton thread was subtracted to obtain the wet weight of the thrombus, and then it was baked in the oven to constant weight and weighed. The weight of the cotton thread was subtracted to obtain the dry weight of the thrombus.

C/C=C/C=C/C(=O)Oc1cc2c(s1)CCN([C@H](C(=O)OC)c1ccccc1Cl)C2 [Compound I-2, Methyl (S)-2-(2-chlorophenyl)-2-(2-((2E,4E)-2,4-hexadienoyloxy)-6,7-dihydrothieno[3,2-c]pyridin-5(4H)-yl)-acetate]
2-Oxo metabolite concentration in human plasma ([1]; 0 min): 0.0192 µM | 2-Oxo metabolite in human plasma, % ([1]; 0 min): 1.74% | Concentration of incubated compound in human plasma ([1]; 0 min): 1110 nM | Incubated compound in human plasma, % ([1]; 0 min): 100% | Generation of 2-oxo (2-Oxo) product in human plasma [1]: rapidly generate 2-oxo products | 2-Oxo metabolite concentration in human plasma ([1]; 5 min): 0.0246 µM | 2-Oxo metabolite in human plasma, % ([1]; 5 min): 2.23% | Concentration of incubated compound in human plasma ([1]; 5 min): 1030 nM | Incubated compound in human plasma, % ([1]; 5 min): 93.5% | 2-Oxo metabolite concentration in human plasma ([1]; 10 min): 0.0319 µM | 2-Oxo metabolite in human plasma, % ([1]; 10 min): 2.89% | Concentration of incubated compound in human plasma ([1]; 10 min): 1030 nM | Incubated compound in human plasma, % ([1]; 10 min): 92.8% | 2-Oxo metabolite concentration in human plasma ([1]; 20 min): 0.0449 µM | 2-Oxo metabolite in human plasma, % ([1]; 20 min): 4.06% | Concentration of incubated compound in human plasma ([1]; 20 min): 1070 nM | Incubated compound in human plasma, % ([1]; 20 min): 97.1% | 2-Oxo metabolite concentration in human plasma ([1]; 30 min): 0.0493 µM | 2-Oxo metabolite in human plasma, % ([1]; 30 min): 4.46% | Concentration of incubated compound in human plasma ([1]; 30 min): 957 nM | Incubated compound in human plasma, % ([1]; 30 min): 86.6% | 2-Oxo metabolite concentration in human plasma ([1]; 45 min): 0.0522 µM | 2-Oxo metabolite in human plasma, % ([1]; 45 min): 4.72% | Concentration of incubated compound in human plasma ([1]; 45 min): 927 nM | Incubated compound in human plasma, % ([1]; 45 min): 83.9% | 2-Oxo metabolite concentration in human plasma ([1]; 60 min): 0.0521 µM | 2-Oxo metabolite in human plasma, % ([1]; 60 min): 4.71% | Concentration of incubated compound in human plasma ([1]; 60 min): 849 nM | Incubated compound in human plasma, % ([1]; 60 min): 76.8% | 2-Oxo metabolite concentration in human plasma ([1]; 90 min): 0.0481 µM | 2-Oxo metabolite in human plasma, % ([1]; 90 min): 4.35% | Concentration of incubated compound in human plasma ([1]; 90 min): 705 nM | Incubated compound in human plasma, % ([1]; 90 min): 63.8% | 2-Oxo metabolite concentration in human plasma ([1]; 120 min): 0.0457 µM | 2-Oxo metabolite in human plasma, % ([1]; 120 min): 4.14% | Concentration of incubated compound in human plasma ([1]; 120 min): 695 nM | Incubated compound in human plasma, % ([1]; 120 min): 62.9% | 2-Oxo metabolite concentration in human plasma ([1]; 150 min): 0.0445 µM | 2-Oxo metabolite in human plasma, % ([1]; 150 min): 4.03% | Concentration of incubated compound in human plasma ([1]; 150 min): 516 nM | Incubated compound in human plasma, % ([1]; 150 min): 46.7% | 2-Oxo metabolite concentration in human plasma ([1]; 180 min): 0.0388 µM | 2-Oxo metabolite in human plasma, % ([1]; 180 min): 3.51% | Concentration of incubated compound in human plasma ([1]; 180 min): 475 nM | Incubated compound in human plasma, % ([1]; 180 min): 43.0% | 2-Oxo metabolite concentration in human plasma ([1]; 240 min): 0.0331 µM | 2-Oxo metabolite in human plasma, % ([1]; 240 min): 3.00% | Concentration of incubated compound in human plasma ([1]; 240 min): 332 nM | Incubated compound in human plasma, % ([1]; 240 min): 30.0% | 2-Oxo metabolite concentration in human plasma ([1]; 300 min): 0.0294 µM | 2-Oxo metabolite in human plasma, % ([1]; 300 min): 2.66% | Concentration of incubated compound in human plasma ([1]; 300 min): 231 nM | Incubated compound in human plasma, % ([1]; 300 min): 20.9% | 2-Oxo metabolite concentration in human plasma ([1]; 360 min): 0.0236 µM | 2-Oxo metabolite in human plasma, % ([1]; 360 min): 2.14% | Concentration of incubated compound in human plasma ([1]; 360 min): 164 nM | Incubated compound in human plasma, % ([1]; 360 min): 14.8% | ED50 ([2]; Rattus norvegicus, po, dry weight of thrombus from arteriovenous bypass, intragastric, read-out: ED50): 5.86 mg/kg | Inhibition rate (%) ([2]; intragastric 1 mg/kg): 36.5% | Inhibition rate (%) ([2]; intragastric 3 mg/kg): 40.3% | Inhibition rate (%) ([2]; intragastric 10 mg/kg): 52.1% | Inhibition rate (%) ([2]; intragastric 30 mg/kg): 68.6% | Dry weight of thrombus (%) ([2]; intragastric 1 mg/kg): 6.4 ± 3.6 | Dry weight of thrombus (%) ([2]; intragastric 3 mg/kg): 6.1 ± 2.9 | Dry weight of thrombus (%) ([2]; intragastric 10 mg/kg): 4.9 ± 2.3 | Dry weight of thrombus (%) ([2]; intragastric 30 mg/kg): 3.2 ± 1.5
